Measured values published in patent US6683085B2, “Salt form and polymorphs” (Pfizer Inc., priority 2000, dated 2004).
Where a name gives a salt, the structure may show the parent alone.

Assays:
[1] = Solubility of the mesylate salt and free base forms; assay type: physicochemical
Hygroscopicity at 90% RH = assay type: physicochemical; settings: for Hygroscopity % (w/w) at 90% RH: Table 4, polymorphic forms of the free base
[2] = Moisture sorption at 30° C. and 45% RH; assay type: physicochemical
[3] = Water content of the hydrated form of the free base; assay type: physicochemical
From the text: The water content of the hydrated form of the free base (Form D) at ambient conditions is commonly of the order of 9 to 10% (w/w). This is equivalent to 2.5 to 2.8 moles of water per mole of the free base. […] The first mole was lost below 5% RH the second retained down to 1% RH see FIG. 11. It is likely that extended storage of the hydrated form below about 18% RH would result in dehydration. Furthermore, removal of the crystalline water results in the loss of the crystal lattice, the product being predominantly amorphous. This highlights a potential problem in using the conventional hydrated form in manufacturing a pharmaceutical formulation. Dehydration was observed on thermal analysis as a broad double endotherm at 97/113° C. (See FIG. 8)

[4] = Stability over a wide range of conditions; assay type: physicochemical; settings: e.g. high light intensity
[5] = tested on: male and female Sprague-Dawley rats; assay: Daily oral administration to rats for 1 month; assay type: in vivo; settings: rat, 30 mg/kg for 1 month

COc1cc2nc(N3CCc4c(cccc4NS(C)(=O)=O)C3)nc(N)c2c(-c2ccccn2)c1OC [Form A, 4-Amino-6,7-dimethoxy-2-(5-methanesulfonamido-1,2,3,4-tetrahydroisoquinol-2-yl)-5-(2-pyridyl)quinazoline]
Solubility ([1]; 0.9% sodium chloride at 22° C., listed as Free base (mpt 198° C.)): 36 micrograms/ml | Solubility ([1]; Water at 22° C., listed as Free base (mpt 198° C.)): 420 micrograms/ml | Hygroscopity % (w/w) at 90% RH (Hygroscopicity at 90% RH; 90% RH): 2.2 % (w/w) | Moisture sorption (% w/w) at 30° C. and 45% RH ([2]; listed as Free base (mpt 198° C.)): 1.39 % w/w

COc1cc2nc(N3CCc4c(cccc4NS(C)(=O)=O)C3)nc(N)c2c(-c2ccccn2)c1OC [Form B, 4-Amino-6,7-dimethoxy-2-(5-methanesulfonamido-1,2,3,4-tetrahydroisoquinol-2-yl)-5-(2-pyridyl)quinazoline]
Hygroscopity % (w/w) at 90% RH (Hygroscopicity at 90% RH; 90% RH): 0.27 % (w/w)

COc1cc2nc(N3CCc4c(cccc4NS(C)(=O)=O)C3)nc(N)c2c(-c2ccccn2)c1OC [Form D, 4-Amino-6,7-dimethoxy-2-(5-methanesulfonamido-1,2,3,4-tetrahydroisoquinol-2-yl)-5-(2-pyridyl)quinazoline, reference compound]
Solubility ([1]; 0.9% sodium chloride at 22° C., listed as Hydrated form of free base): 4 micrograms/ml | Solubility ([1]; Water at 22° C., listed as Hydrated form of free base): 12 micrograms/ml | Hygroscopity % (w/w) at 90% RH (Hygroscopicity at 90% RH; 90% RH): 12.8 % (w/w) | Water content ([3]; 90% RH): 12.8 % (w/w) | Water content, moles of water ([3]; 90% RH): 3.6 moles of water | Water content ([3]; ambient conditions): 9 to 10 % (w/w) | Water content, moles of water per mole of the free base ([3]; ambient conditions): 2.5 to 2.8 moles of water per mole of the free base | Moisture sorption (% w/w) at 30° C. and 45% RH ([2]; listed as Hydrated form of free base): 11.24 % w/w

COc1cc2nc(N3CCc4c(cccc4NS(C)(=O)=O)C3)nc(N)c2c(-c2ccccn2)c1OC [Form E, 4-Amino-6,7-dimethoxy-2-(5-methanesulfonamido-1,2,3,4-tetrahydroisoquinol-2-yl)-5-(2-pyridyl)quinazoline]
Hygroscopity % (w/w) at 90% RH (Hygroscopicity at 90% RH; 90% RH): 0.045 % (w/w)

COc1cc2nc(N3CCc4c(cccc4NS(C)(=O)=O)C3)nc(N)c2c(-c2ccccn2)c1OC [Mesylate salt, 4-amino-6,7-dimethoxy-2-(5-methanesulfonamido-1,2,3,4-tetrahydroisoquinol-2-yl)-5-(2-pyridyl)quinazoline mesylate]
Solubility ([1]; 0.9% sodium chloride at 22° C., mesylate): 120 micrograms/ml | Solubility ([1]; Water at 22° C., mesylate): 880 micrograms/ml | Stability [4]: good stability | Adverse effects [5]: no evidence of adverse effects | Changes linked to the pharmacological activity [5]: induced changes linked to the pharmacological activity of the compound | Hygroscopicity % (w/w) at 90% RH (Hygroscopicity at 90% RH; 90% RH, Table 1, mesylate salt): 1.1 % (w/w) | Hygroscopicity compared with another form (Hygroscopicity at 90% RH; over a wide range of relative humidity, comparison in words): substantially lower than the free base | Moisture sorption (% w/w) at 30° C. and 45% RH ([2]; listed as Mesylate salt (mpt 279° C.), mesylate): 0.56 % w/w
